Experimental data as given in publication PMC223355 (BMC Biochemistry, 2003).
Like-named read-outs stand apart in the source and are kept apart here. One block for each molecule: values may come before it.

Experiments:
[1] = target: T1, recombinant human kynureninase (Homo sapiens, UniProt Q16719); conditions: cited from earlier work
T1 sequence (Q16719 1-465): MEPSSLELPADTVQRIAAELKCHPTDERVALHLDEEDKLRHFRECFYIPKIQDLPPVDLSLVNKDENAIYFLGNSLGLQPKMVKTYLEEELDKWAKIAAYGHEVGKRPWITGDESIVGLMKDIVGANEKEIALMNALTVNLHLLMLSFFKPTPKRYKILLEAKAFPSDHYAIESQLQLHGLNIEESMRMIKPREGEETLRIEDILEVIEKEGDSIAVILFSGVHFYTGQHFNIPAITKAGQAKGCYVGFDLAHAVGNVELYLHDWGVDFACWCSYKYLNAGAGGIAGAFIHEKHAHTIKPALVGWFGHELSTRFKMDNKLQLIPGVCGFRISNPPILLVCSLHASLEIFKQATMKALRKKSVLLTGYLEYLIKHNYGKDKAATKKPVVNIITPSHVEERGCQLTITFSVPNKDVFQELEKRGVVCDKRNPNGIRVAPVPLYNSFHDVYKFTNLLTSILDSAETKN

rat hepatic kynureninase = target: T2, rat hepatic kynureninase (Rattus norvegicus, UniProt P70712); conditions: cited from earlier work
T2 sequence (P70712 1-464): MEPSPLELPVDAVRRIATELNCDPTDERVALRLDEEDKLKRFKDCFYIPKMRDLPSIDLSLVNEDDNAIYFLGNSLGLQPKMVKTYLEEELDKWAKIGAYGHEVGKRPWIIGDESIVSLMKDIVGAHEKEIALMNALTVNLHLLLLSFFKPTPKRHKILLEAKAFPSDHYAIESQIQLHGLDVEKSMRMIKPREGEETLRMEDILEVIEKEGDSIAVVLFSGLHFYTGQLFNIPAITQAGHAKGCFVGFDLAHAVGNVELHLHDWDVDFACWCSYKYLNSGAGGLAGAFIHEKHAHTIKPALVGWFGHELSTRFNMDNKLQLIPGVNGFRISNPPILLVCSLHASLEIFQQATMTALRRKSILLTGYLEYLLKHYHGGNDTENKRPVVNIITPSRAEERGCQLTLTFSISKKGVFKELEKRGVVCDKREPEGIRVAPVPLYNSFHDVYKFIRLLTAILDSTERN

kynureninase [2] = target: T3, kynureninase (Pseudomonas fluorescens, UniProt P83788); conditions: as substrate of the Pseudomonas enzyme; cited from earlier work
T3 sequence (P83788 1-416): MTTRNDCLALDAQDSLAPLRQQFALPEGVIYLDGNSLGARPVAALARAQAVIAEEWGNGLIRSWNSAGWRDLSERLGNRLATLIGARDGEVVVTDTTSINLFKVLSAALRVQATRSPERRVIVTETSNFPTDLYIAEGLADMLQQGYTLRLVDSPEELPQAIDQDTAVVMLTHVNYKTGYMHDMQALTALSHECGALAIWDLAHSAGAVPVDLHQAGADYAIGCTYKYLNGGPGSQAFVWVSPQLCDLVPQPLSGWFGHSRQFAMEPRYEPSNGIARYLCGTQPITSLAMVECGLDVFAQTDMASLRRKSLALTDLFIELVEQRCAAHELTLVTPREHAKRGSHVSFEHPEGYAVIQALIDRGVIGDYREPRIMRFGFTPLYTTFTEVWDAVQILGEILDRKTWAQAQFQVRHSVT

[3] = target: T1, recombinant human kynureninase; test: Inhibition / kinetics of recombinant human kynureninase; type: biochemical; conditions: as substrate of the human enzyme
kynureninase [4] = target: T3, kynureninase; test: Inhibition / kinetics of tryptophan-induced bacterial kynureninase; type: biochemical

SMILES: Nc1ccccc1C(=O)CC(N)C(=O)O [kynurenine D-enantiomer, kynurenine]
Ki ([1]; human enzyme (by context)): 12 µM

SMILES: Nc1ccccc1C(=O)C[C@H](N)C(=O)O [L-kynurenine]
Km (rat hepatic kynureninase; as substrate of the rat enzyme, reported values, no reference given): 500 µM
Km (kynureninase [2]): 44.2 µM

SMILES: Nc1c(O)cc(O)cc1C(=O)CCC(=O)O [dihydroxydesamino derivative, 3,5-dihydroxydesaminokynurenine]
Ki (rat hepatic kynureninase; rat enzyme (both mammalian enzymes), earlier report): ~0.25 µM
Ki ([1]; recombinant human enzyme (both mammalian enzymes), earlier report): ~0.25 µM

substrate activity [3]: no appreciable substrate activity
SMILES: Nc1ccccc1C(=O)CC(N)C(=O)O (centres unmarked) [kynurenine]

SMILES: Nc1ccccc1C(=O)CCC(=O)O [desaminokynurenine]
Ki (kynureninase [4]; bacterial enzyme, unpublished results of the authors): 12 ± 3.1 µM
type of inhibition (kynureninase [4]; bacterial kynureninase, Lineweaver-Burk and Dixon plots): mixed inhibitor
